Earlier results as cited in PubChem BioAssay AID1259409 (Chemical Carcinogenesis Research Information System (CCRIS), 2018).

Test system: rodent chemically induced tumor inhibition, incidence and multiplicity
Assay: CCRIS tumor inhibitor studies

SMILES: CC(=O)OC/C=C(C)/C=C/C=C(C)/C=C/C1=C(C)CCCC1(C)C
- tumour outcome (control, treated, inhibition, significance) (Carcinogen: 1,2-DIMETHYLHYDRAZINE, 540-73-8, Dose [Inhibitor]: 0.8 MMOL/KG DIET DAILY STARTING 12 D AFTER CARCINOGEN TREATMENT THROUGH ABOUT 8 MO AFTER CARCINOGEN DOSE (STUDY DURATION, Route [Inhibitor]: ORAL, Species: RAT, Strain/Sex: F344/MALE, Target Tissue: Type of Lesion: COLON: ADENOCARCINOMA, Dose [Carcinogen]: 150 MG/KG BW ONCE, Promoter: NONE USED): 10/39 (26%), 7/30 (23%), 12%, not significant
- tumour outcome (control, treated, inhibition, significance) (Carcinogen: 1,2-DIMETHYLHYDRAZINE, 540-73-8, Dose [Inhibitor]: 0.8 MMOL/KG DIET DAILY STARTING 12 D AFTER CARCINOGEN TREATMENT THROUGH ABOUT 8 MO AFTER CARCINOGEN DOSE (STUDY DURATION, Route [Inhibitor]: ORAL, Species: RAT, Strain/Sex: F344/MALE, Target Tissue: Type of Lesion: COLON: ADENOMA, Dose [Carcinogen]: 150 MG/KG BW ONCE, Promoter: NONE USED): 23/39 (59%), 9/30 (30%), 49%, p<0.05
- tumour outcome (control, treated, inhibition, significance) (Carcinogen: 7,12-DIMETHYLBENZ[A]ANTHRACENE, 57-97-6, Dose [Inhibitor]: 0, 328 MG/KG OF DIET FROM DAY 34 TO 54 OF AGE (STUDY DURATION: 200 D), Route [Inhibitor]: ORAL, Species: RAT, Strain/Sex: SPRAGUE-DAWLEY/FEMALE, Target Tissue: Type of Lesion: MAMMARY GLAND: ADENOCARCINOMA, Dose [Carcinogen]: 15 MG/RAT ONCE AT 55 D OF AGE, Promoter: NONE USED): 93%, 97%, -4%, not calculated
- tumour outcome (control, treated, inhibition, significance) (Carcinogen: 7,12-DIMETHYLBENZ[A]ANTHRACENE, 57-97-6, Dose [Inhibitor]: 0, 328 MG/KG OF DIET FROM DAY 34 TO 54 OF AGE (STUDY DURATION: 200 D), Route [Inhibitor]: ORAL, Species: RAT, Strain/Sex: SPRAGUE-DAWLEY/FEMALE, Target Tissue: Type of Lesion: MAMMARY GLAND: BENIGN TUMORS, Dose [Carcinogen]: 15 MG/RAT ONCE AT 55 D OF AGE, Promoter: NONE USED): 28%, 40%, -43%, not calculated
- tumour outcome (control, treated, inhibition, significance) (Carcinogen: 7,12-DIMETHYLBENZ[A]ANTHRACENE, 57-97-6, Dose [Inhibitor]: 0, 350 MG/KG 1/WK FROM 40-90 D OF AGE THEN 0, 250 MG/KG 1/WK FROM 90-180 D OF AGE AND 0, 200 MG/KG 1/WK FROM 180-240 D O, Dose [Inhibitor]: 0, 350 MG/KG 1/WK FROM 40-90 D OF AGE THEN 0, 250 MG/KG 1/WK FROM 90-180 D OF AGE AND 0, 200 MG/KG 1/WK FROM 180-240 D O, Route [Inhibitor]: INTRAPERITONEAL, Species: RAT, Strain/Sex: SPRAGUE DAWLEY/FEMALE, Target Tissue: Type of Lesion: MAMMARY GLAND: ADENOCARCINOMA, FIBROADENOMA, Dose [Carcinogen]: 5 MG IN 0.2 ML SESAME OIL 1/2 D FOR 12 D BEGINNING AT 50 D OF AGE, Promoter: NONE USED): 100%, 48%, 52%, p<0.001
- tumour outcome (control, treated, inhibition, significance) (Carcinogen: 7,12-DIMETHYLBENZ[A]ANTHRACENE, 57-97-6, Dose [Inhibitor]: 0.2 MILLIMOLAR IN DIET DAILY FOR 27 WK STARTING 3 D AFTER LAST CARCINOGEN DOSE AND CONTINUING THE END OF THE STUDY (STUD, Route [Inhibitor]: ORAL, Species: MOUSE, Strain/Sex: BDF/FEMALE, Target Tissue: Type of Lesion: MAMMARY GLAND: ADENOCARCINOMA, Dose [Carcinogen]: 1 MG/WK FOR 6 WK, Promoter: NONE USED): 22/75 (29%), 31/75 (41%), -41%, not significant
- tumour outcome (control, treated, inhibition, significance) (Carcinogen: 7,12-DIMETHYLBENZ[A]ANTHRACENE, 57-97-6, Dose [Inhibitor]: 0.2 MILLIMOLAR IN DIET DAILY FOR 27 WK STARTING 3 D AFTER LAST CARCINOGEN DOSE AND CONTINUING THROUGH THE END OF THE STU, Route [Inhibitor]: ORAL, Species: MOUSE, Strain/Sex: BDF/FEMALE, Target Tissue: Type of Lesion: MAMMARY GLAND: ADENOCANTHOMA, Dose [Carcinogen]: 1 MG/WK FOR 6 WK, Promoter: NONE USED): 20/75 (27%), 19/75 (25%), 7%, not significant
- tumour outcome (control, treated, inhibition, significance) (Carcinogen: 7,12-DIMETHYLBENZ[A]ANTHRACENE, 57-97-6, Dose [Inhibitor]: 68 MG/KG DIET DAILY FOR 11 WK STARTING 3 D AFTER CARCINOGEN TREATMENT (STUDY DURATION: 11 WK), Route [Inhibitor]: ORAL, Species: RAT, Strain/Sex: SPRAGUE-DAWLEY/FEMALE, Target Tissue: Type of Lesion: MAMMARY GLAND: CARCINOMA, Dose [Carcinogen]: 20 MG/ML SESAME OIL ONCE AT 53 D OF AGE, Promoter: NONE USED): 100%, 92%, 8%, not significant
- tumour outcome (control, treated, inhibition, significance) (Carcinogen: 7,12-DIMETHYLBENZ[A]ANTHRACENE, 57-97-6, Dose [Inhibitor]: 204 MG/KG DIET DAILY FOR 12 WK STARTING 3 D AFTER CARCINOGEN TREATMENT (STUDY DURATION: 12 WK), Route [Inhibitor]: ORAL, Species: RAT, Strain/Sex: SPRAGUE-DAWLEY/FEMALE, Target Tissue: Type of Lesion: MAMMARY GLAND: CARCINOMA, Dose [Carcinogen]: 10 MG/ML SESAME OIL ONCE AT 53 D OF AGE, Promoter: NONE USED): 90%, 74%, 18%, not significant
- tumour outcome (control, treated, inhibition, significance) (Carcinogen: 7,12-DIMETHYLBENZ[A]ANTHRACENE, 57-97-6, Dose [Inhibitor]: 250 MG/KG DIET DAILY FOR 28 WK STARTING 2 WK BEFORE START OF CARCINOGEN TREATMENT AND CONTINUING FOR DURATION OF STUDY (, Route [Inhibitor]: ORAL, Species: RAT, Strain/Sex: SPRAGUE-DAWLEY/FEMALE, Target Tissue: Type of Lesion: MAMMARY GLAND: TUMOR, Dose [Carcinogen]: 5 MG IN CORN OIL 1/WK FOR 3 WK, Promoter: NONE USED): 90%, 47%, 48%, p<0.001
- tumour outcome (control, treated, inhibition, significance) (Carcinogen: 7,12-DIMETHYLBENZ[A]ANTHRACENE, 57-97-6, Dose [Inhibitor]: 328 MG/KG DIET DAILY FOR 20 WK STARTING 3 D AFTER CARCINOGEN TREATMENT (STUDY DURATION: 26 WK), Route [Inhibitor]: ORAL, Species: RAT, Strain/Sex: SPRAGUE-DAWLEY/FEMALE, Target Tissue: Type of Lesion: MAMMARY GLAND: CARCINOMA, Dose [Carcinogen]: 5 MG/ML SESAME OIL ONCE AT 53 D OF AGE, Promoter: NONE USED): 85%, 60%, 29%, not significant
- tumour outcome (control, treated, inhibition, significance) (Carcinogen: DIMETHYLBENZ[A]ANTHRACENE, 57-97-6, Dose [Inhibitor]: 0, 328 MG/KG DIET IN VEHICLE 2 MO PRIOR TO CARCINOGEN DOSE AND CONTINUED UNTIL CARCINOGEN ADMINISTRATION (STUDY DURATION, Route [Inhibitor]: ORAL, Species: RAT, Strain/Sex: CD-1/FEMALE, Target Tissue: Type of Lesion: MAMMARY GLAND: ADENOCARCINOMA, Dose [Carcinogen]: 20 MG IN 1 ML SESAME OIL ONCE, Promoter: NONE USED): 63%, 57%, 10%, not calculated
- tumour outcome (control, treated, inhibition, significance) (Carcinogen: DIMETHYLBENZ[A]ANTHRACENE, 57-97-6, Dose [Inhibitor]: 0, 328 MG/KG DIET IN VEHICLE 2 MO PRIOR TO CARCINOGEN DOSE AND CONTINUED UNTIL CARCINOGEN ADMINISTRATION (STUDY DURATION, Route [Inhibitor]: ORAL, Species: RAT, Strain/Sex: CD-1/FEMALE, Target Tissue: Type of Lesion: MAMMARY GLAND: BENIGN TUMOR, Dose [Carcinogen]: 20 MG IN 1 ML SESAME OIL ONCE, Promoter: NONE USED): 17%, 50%, -194%, p<0.05
- tumour outcome (control, treated, inhibition, significance) (Carcinogen: ETHYLNITROSOUREA, 759-73-9, Dose [Inhibitor]: 0, 300000 IU KG IN 1:20 (VOLUME: VOLUME) SUNFLOWER OIL IN DIET 5 D/WK FOR LIFE (STUDY DURATION: 319 D), Route [Inhibitor]: ORAL, Species: RAT, Strain/Sex: ALBINO/MALE,FEMALE, Target Tissue: Type of Lesion: NERVOUS SYSTEM: SCHWANNOMA, Dose [Carcinogen]: 75 MG/KG IN SALINE BY INTRAVENOUS INJECTION ONCE 21 D AFTER CONCEPTION): 37/89 (42%), 14/50 (28%), 33%, not calculated
- tumour outcome (control, treated, inhibition, significance) (Carcinogen: ETHYLNITROSOUREA, 759-73-9, Dose [Inhibitor]: 0, 300000 IU/KG IN 1:20 (VOLUME: VOLUME) SUNFLOWER OIL IN DIET 5 D/WK FOR LIFE (STUDY DURATION: 319 D), Route [Inhibitor]: ORAL, Species: RAT, Strain/Sex: ALBINO/MALE,FEMALE, Target Tissue: Type of Lesion: BRAIN: GLIOMA OR ASTROCYTOMA, Dose [Carcinogen]: 75 MG/KG IN SALINE BY INTRAVENOUS INJECTION ONCE 21 D AFTER CONCEPTION): 54/89 (61%), 38/50 (76%), -25%, not calculated
- tumour outcome (control, treated, inhibition, significance) (Carcinogen: ETHYLNITROSOUREA, 759-73-9, Dose [Inhibitor]: 0, 300000 IU/KG IN 1:20 (VOLUME: VOLUME) SUNFLOWER OIL IN DIET 5 D/WK FOR LIFE (STUDY DURATION: 319 D), Route [Inhibitor]: ORAL, Species: RAT, Strain/Sex: ALBINO/MALE,FEMALE, Target Tissue: Type of Lesion: KIDNEY: MESENCHYMAL TUMOR OR ADENOCARCINOMA, Dose [Carcinogen]: 75 MG/KG IN SALINE BY INTRAVENOUS INJECTION ONCE 21 D AFTER CONCEPTION): 33/89 (37%), 14/50 (28%), 24%, not calculated
- tumour outcome (control, treated, inhibition, significance) (Carcinogen: ETHYLNITROSOUREA, 759-73-9, Dose [Inhibitor]: 0, 300000 IU/KG IN 1:20 (VOLUME: VOLUME) SUNFLOWER OIL IN DIET 5 D/WK FOR LIFE (STUDY DURATION: 319 D), Route [Inhibitor]: ORAL, Species: RAT, Strain/Sex: ALBINO/MALE,FEMALE, Target Tissue: Type of Lesion: SPINAL CORD: TUMOR, Dose [Carcinogen]: 75 MG/KG IN SALINE BY INTRAVENOUS INJECTION ONCE 21 D AFTER CONCEPTION): 55/89 (62%), 26/50 (52%), 16%, not calculated
- tumour outcome (control, treated, inhibition, significance) (Carcinogen: METHYLNITROSOUREA, 684-93-5, Dose [Inhibitor]: 0, 328 MG/KG DIET IN VEHICLE 2 MO PRIOR TO CARCINOGEN DOSE AND CONTINUED UNTIL CARCINOGEN ADMINISTRATION (STUDY DURATION, Route [Inhibitor]: ORAL, Species: RAT, Strain/Sex: CD-1/FEMALE, Target Tissue: Type of Lesion: MAMMARY GLAND: ADENOCARCINOMA, Dose [Carcinogen]: 50 MG/KG BW ONCE, Promoter: NONE USED): 57%, 72%), -26%, not calculated
- tumour outcome (control, treated, inhibition, significance) (Carcinogen: METHYLNITROSOUREA, 684-93-5, Dose [Inhibitor]: 0, 328 MG/KG DIET IN VEHICLE 2 MO PRIOR TO CARCINOGEN DOSE AND CONTINUED UNTIL CARCINOGEN ADMINISTRATION (STUDY DURATION, Route [Inhibitor]: ORAL, Species: RAT, Strain/Sex: CD-1/FEMALE, Target Tissue: Type of Lesion: MAMMARY GLAND: BENIGN TUMOR, Dose [Carcinogen]: 50 MG/KG BW ONCE, Promoter: NONE USED): 10%, 21%, -110%, not calculated
